Our source for the viscosity and mass density values is the NIST ThermoML archive (doi:10.1016/j.jct.2013.11.026).

Numbers after ± are expanded uncertainties.

For this series the following is noted: 298.15 K, 101.8 kPa, Liquid; for viscosity: Falling or rolling sphere viscometry; for mass density: Vibrating tube method.

`CC1=CCC(C(C)C)=CC1` [1-methyl-4-(1-methylethyl)-1,4-cyclohexadiene]: the viscosity – broadly, the resistance of a fluid to flow – was 1.144 ± 0.031 mPa·s and the mass density – broadly, the mass of a sample divided by its volume – stood at 844.9 ± 1.9 kg/m3.
With `C=CC(C)(O)CCC=C(C)C` (stereo unspecified) [3,7-dimethyl-1,6-octadien-3-ol], the viscosity turned out to be 4.349 ± 0.092 mPa·s and the mass density was determined as 857.28 ± 1 kg/m3.
Taken in the same sequence, the figures for `CC(C)=CCCC(C)=CC=O` [3,7-dimethyl-2,6-octadienal (cis+trans)] were 2.019 ± 0.043 mPa·s and 883.42 ± 1 kg/m3.
For `C=C1CC[C@H]2C[C@@H]1C2(C)C` [(1S,5S)-6,6-dimethyl-2-methylenebicyclo[3.1.1]heptane] the same measures were 1.616 ± 0.034 mPa·s and 866.93 ± 1 kg/m3.
For `C=C(C)[C@H]1CC=C(C)CC1` [(R)-1-methyl-4-(1-methylethenyl)cyclohexene] the same measures were 0.8599 ± 0.022 mPa·s and 838.59 ± 1.6 kg/m3.
`CCO` [ethanol]: the viscosity is recorded as 1.125 ± 0.024 mPa·s and the mass density was found to be 785.07 ± 1 kg/m3.
Taken in the same sequence, the figures for `C=C(C)[C@@H]1CC=C(C)C(=O)C1` [l-carvone] were 2.456 ± 0.052 mPa·s and 958.79 ± 1 kg/m3.
Taken in the same sequence, the figures for `C=CC(C)(CCC=C(C)C)OC(C)=O` (stereo unspecified) [linalool acetate] were 2.291 ± 0.049 mPa·s and 898.64 ± 1 kg/m3.
